Laboratory results: PMC5464911, “SEL120-34A is a novel CDK8 inhibitor active in AML cells with high levels of serine phosphorylation of STAT1 and STAT5 transactivation domains” (Oncotarget, 2017)

System: RNAP II CTD S2 and S5
Experiment: RNAP II CTD phosphorylation in HCT-116 cells (WB)
Assay type: cell-based
Settings: SEL120-34A up to 2.5 μM
Experimental: 0,1% SDS; 20 mM β-glicerol phosphate; 5 mM NaF; cat. # sc835), α-STAT5-pS726 (1:1000; Abcam, cat. # 1 mM Na3VO4) supplemented with protease inhibitors ab128896), α-STAT5-pY694 (1:1000; Cell Signaling, (Santa Cruz Biotechnology). Tumor samples were cat. #C11C5), α-tubulin (1:4000; Sigma, cat. # T5192) homogenized in 15 sec intervals and kept on ice between and β-actin (1:4000, Sigma cat. # A2066) or GAPDH homogenization cycles. Protein concentration in lysates (1:20000; Sigma, cat. # G9545) was measured by the Bradford assay and adjusted to achieve the same final concentration in each well (20-30 mRNA extraction from xenograft tissue μg protein/well). […] A scoop Unless indicated otherwise, membranes were blocked of a tumor (~25mg) was homogenized with a pestle for 45 min with 2% fat-free dried milk (Rovema, Poland) under liquid nitrogen and immediately processed in Tris-buffered saline (TBS) + 0.05% Tween (TBST), according to the RNeasy Mini Kit protocol (Qiagen). incubated overnight at 4°C with primary antibodies diluted The RNA concentration was measured by a NanoDrop into 2% milk in TBST and washed four times for 10 min spectrophotometer and stored at -80°C for downstream with TBST. […]
with the activities of CDK9 in cells. […] Protein levels of RNAP II CTD pS2, pS5, cMYC and GAPDH were measured by WB.

With `Cc1c(Br)c(Br)c2c3c1nc(N1CCNCC1)n3CCC2` [SEL120-34A] the “RNAP II CTD phosphorylation at S2 and S5” value was “not affected”.
